From US9187518B2, “Antiangiogenic brassinosteroid compounds” (CONSEJO NACIONAL DE INVESTIGACIONES CIENTIFICAS Y TECNICAS …, priority 2011, dated 2015)

How the values were obtained:
[1] = system: human conjunctival cells; assay: Cytotoxicity assay, conjunctival cells; assay type: cell-based
Experimental: (§1) Cell viability was determined as previously reported. The absorbance of each well was measured on a Eurogenetics MPR-A 4i microplate reader using a test wavelength of 570 nm and a reference wavelength of 630 nm. Results were expressed as a percentage of absorbance of treated cells with respect to untreated ones. The CC50 was defined as the concentration of compound that caused 50% reduction in cell viability.

[2] = system: human corneal cells; assay: Cytotoxicity assay, corneal cells; assay type: cell-based
Experimental: as §1

[3] = system: HSV-1; assay: Murine model of HSV-1 corneal infection (herpetic stromal keratitis, HSK); assay type: in vivo, mice
[4] = system: NF-κB p65 subunit; assay: NF-κB p65 nuclear translocation in HSV-1 infected IOBA-NHC and HCLE cells (IFI); assay type: cell-based, human; conditions: 40 μM
Experimental: IOBA-NHC and HCLE cells monolayers grown on coverslips in 24-well plates were infected with 0.2 ml of HSV-1 KOS (m.o.i.=1) and incubated 1 h at 37° C. Then, the inoculums were removed and cells were coated with a DMEM/F12 without SFB, for 24 h at 37° C.
After incubation, cells were fixed in methanol at −20° C. for 10 min, and processed for indirect immunofluorescence (IFI) with antibodies directed against the glycoprotein D (gD) of HSV-1 and/or the p65 subunit of NF-κB. […]
The images obtained with a 40× magnification were imported into NIH Image J 1.34s program (designed by Wayne Rasband, NIMH, Bethesda). […] We analyzed the total and nuclear fluorescence of the individual cells and a mean fluorescence density was obtained for each. To compare the distribution of fluorescence within the cell, the results were analyzed in a spreadsheet (Excel®). The total fluorescence intensity or nuclear density was calculated as the total or nuclear average per total or nuclear area, respectively. Then, we calculated the percentage of nuclear intensity or the percentage of nuclear intensity with respect to the total intensity for each cell. Non-stimulated cells were processed to establish a baseline of nuclear fluorescence (cut-off value). […]

[5] = system: TNF-α; assay: TNF-α secretion in epithelial cells (ELISA); assay type: cell-based, human
[6] = system: IL-8; assay: IL-8 secretion in epithelial cells (ELISA); assay type: cell-based, human
[7] = system: IL-6; assay: IL-6 secretion in LPS-stimulated J774A.1 macrophages (ELISA); assay type: cell-based, murine; conditions: J774A.1 stimulated with 100 ng/ml LPS 8 h, 40 μM
Experimental: J774A.1 cells grown in 24-well plates were incubated at 37° C. with 100 ng/ml of LPS, in duplicate. After 8 h, supernatants were harvested and murine IL-6 was quantified by commercial ELISA sets (BD OptEIA™, Becton Dickinson, USA) according to manufacturer instructions.

[8] = system: HCLE cells infected with HSV-1; assay: Microarray gene expression in HCLE cells infected with HSV-1; assay type: cell-based, human; conditions: HCLE infected with HSV-1 (m.o.i.=1), 40 μM, 6 h, vs infected untreated
Experimental: (§2) HSV-1 infected cells and LPS stimulated cells were transcriptionally analyzed by using the whole human genome microarray and whole mouse genome microarray (Agilent Technologies, Santa Clara, Calif.), corresponding to 41,000 human or mice genes and transcripts.
(§3) RNA was extracted with chloroform/isopropanol and purified from Trizol.
(§4) cDNA synthesis, amplification and labeling of cRNA was performed, following the protocol of two colors of Agilent. Cyanine: 3-CTP and 5-CTP labeled cRNA was prepared from purified RNA (Two-Color Microarray-Based Gene Expression Analysis—Quick Amp Labeling, Agilent). Labeled cRNA was purified, quantified and the efficiency of labeling determined.
After that, we proceeded with the hybridization, washing, assembling of the chips and scanning. […] The fluorescence intensity data obtained for each chip were analyzed using GeneSpring XG11 and Multi Experiment Viewer (MeV) programs. […]
We used the commercial software Agilent Feature Extraction for quality control of the scan. The software converts the scanned images produced in quantitative data for further analysis. […] On the one hand, it performs an analysis of the image to locate the grid on the chip and in it, the spots for each gene, and on the other hand, it makes an analysis of data, to define and measure information (fluorescence intensity) of each spot, for the analysis of gene expression. […]

[9] = system: J774A.1 cells stimulated with LPS; assay: Microarray gene expression in J774A.1 cells stimulated with LPS; assay type: cell-based, mouse; conditions: J774A.1, 100 ng/ml LPS, 40 μM, 6 h
Experimental: as §2, §3, §4
After that, we proceeded with the hybridization, washing, assembling of the chips and scanning. The scanner software (Feature extraction) performed the scan quality control. The fluorescence intensity data obtained for each chip were analyzed using GeneSpring XG11 and Multi Experiment Viewer (MeV) programs.
Labeled samples were placed in human and mouse hybridizing chips for HCLE and J774A.1 cells, respectively, during 17 h at 60° C. Successive washings were done with different washing, stabilization and drying solutions, and samples were scanned in the Agilent scanner G2565BA.
We used the commercial software Agilent Feature Extraction for quality control of the scan. The software converts the scanned images produced in quantitative data for further analysis. It calculates the errors associated with hybridization, washing and scanning and detects outliers. On the one hand, it performs an analysis of the image to locate the grid on the chip and in it, the spots for each gene, and on the other hand, it makes an analysis of data, to define and measure information (fluorescence intensity) of each spot, for the analysis of gene expression.
We identified differentially expressed genes with statistical significance. We used two programs, the XG11 and GeneSpring and the Multi Experiment Viewer (MeV).
For this purpose, epithelial infected and inflammatory cells were processed to obtain RNA samples. HCLE cells infected with HSV-1 (m.o.i.=1) and J774A.1 cells stimulated with LPS (100 ng/ml) were treated or not with 40 μM of Compound 1. To extract total RNA, cells were harvested with Trizol at 6 h p.i. and at 6 h post-LPS induction. Eight replicates were obtained from HSV-1 infected and LPS-stimulated cells (four ‘control’ each) and other eight, from infected and LPS-stimulated cells treated with Compound 1 (four ‘treated’ each).

CC[C@@H](C(C)C)[C@H](O)[C@@H](O)[C@@H](C)[C@H]1CC[C@H]2[C@@H]3CCC4=CC(=O)CC[C@]4(C)[C@H]3CC[C@]12C [Compound 1, (22S,23S)-22,23-dihydroxystigmast-4-en-3-one]
cytotoxicity [1]: no cytotoxicity | cytotoxicity [2]: no cytotoxicity | antiviral activity in vivo ([3]; HSV-1 infected mice): no antiviral activity in vivo | signs of keratitis ([3]; administered during the first 3 days after HSV-1 infection): significantly restrained | incidence and severity of HSK ([3]; murine model of HSV-1 corneal infection, in presence of replicative virus and after immune response triggered): significantly decreases | incidence and severity of neovascularization in infected corneas ([3]; treated from day 1 p.i. onwards, and at onset of disease, 6 days p.i. (data not shown)): decreased | percentage of cells exhibiting NF-κB translocation to the nucleus ([4]; HCLE cells infected with HSV-1 (m.o.i.=1)): 5.7% | percentage of cells exhibiting NF-κB translocation to the nucleus ([4]; IOBA-NHC cells infected with HSV-1 (m.o.i.=1)): 22.2±1.2% | TNF-α production ([5]; HSV-1 infected IOBA-NHC cells, 40 μM, 24 h): did not affect TNF-α production | TNF-α release ([5]; uninfected treated cells, compound alone): did not induce TNF-α release by itself | IL-8 secretion ([6]; HSV-1 infected HCLE cells, 40 μM, 24 h (untreated infected 142.9±0.5)): 163.6 ± 0.4 pg/mL | IL-8 secretion ([6]; HSV-1 infected IOBA-NHC cells, 40 μM, 24 h (untreated infected 252±7.8)): 471.8 ± 30 pg/mL | IL-8 secretion ([6]; uninfected HCLE cells, compound alone, vs basal level): considerably increased | IL-8 secretion ([6]; uninfected IOBA-NHC cells, compound alone, vs basal level): considerably increased | IL-6 level [7]: 838 ± 4.2 pg/mL | expression of IL-1α, IL-8 and CXCL-2 [8]: overexpression | expression of macrophage colony stimulating factor (CSF-2) [8]: overexpression | Dusp2 gene expression [9]: restrained | expression of ATF3 and TLR4 [9]: overexpressed | expression of IL-10 and Socs2 ([9]; vs untreated control): increased | expression of genes for IL-12, IL-23 and CXCL10 ([9]; vs untreated stimulated): overexpression
